Measurements taken from ChEMBL document CHEMBL3856287, “Synthesis of novel tetrazole derivatives and evaluation of their antifungal activity” (Bioorg Med Chem, 2016).
Converted amounts (≈) assume the structure as drawn.

Assays:
Candida albicans [1] = experiment: Antifungal activity against Candida albicans ATCC 90028 assessed as growth inhibition after 7 days in presence of osmotic protector 0.8 M sorbitol by broth microdilution method; assay type: functional; settings: ATCC 90028, 168 h
Candida albicans [2] = experiment: Antifungal activity against Candida albicans ATCC 90028 assessed as fractional inhibitory concentration after 18 to 48 hrs in presence of fluconazole by checkerboard assay; assay type: functional
Candida albicans [3] = experiment: Antifungal activity against Candida albicans ATCC 90028 assessed as growth inhibition at 4 ug/ml after 48 hrs by broth microdilution method relative to control; assay type: functional; settings: ATCC 90028, 48 h, read-out: GI
[4] = Antifungal activity against Fusarium sambucinum MF1 assessed as radial growth inhibition at 64 ug/ml after 5 to 7 days relative to control; assay type: functional
Candida albicans [5] = experiment: Antifungal activity against Candida albicans ATCC 90028 assessed as fractional inhibitory concentration index after 18 to 48 hrs in presence of fluconazole by checkerboard assay; assay type: functional
Candida albicans [6] = experiment: Antifungal activity against Candida albicans ATCC 90028 after 18 to 48 hrs in presence of 10 ug/ml fluconazole by checkerboard assay; assay type: functional
Candida albicans [7] = experiment: Fungicidal activity against Candida albicans ATCC 90028 at MIC after 7 days in presence of osmotic protector 0.8 M sorbitol by broth microdilution method; assay type: functional
Candida albicans [8] = experiment: Antifungal activity against Candida albicans ATCC 90028 assessed as growth inhibition after 48 hrs in presence of osmotic protector 0.8 M sorbitol by broth microdilution method; assay type: functional; settings: ATCC 90028, 48 h
Candida albicans [9] = experiment: Antifungal activity against Candida albicans ATCC 90028 after 18 to 48 hrs in presence of 2.5 ug/ml fluconazole by checkerboard assay; assay type: functional
Candida albicans [10] = experiment: Antifungal activity against Candida albicans ATCC 90028 assessed as growth inhibition at 0.5 ug/ml after 48 hrs by broth microdilution method relative to control; assay type: functional; settings: ATCC 90028, 48 h, read-out: GI
Candida albicans [11] = experiment: Antifungal activity against Candida albicans ATCC 90028 after 18 to 48 hrs in presence of 80 ug/ml fluconazole by checkerboard assay; assay type: functional
[12] = Toxicity in last instar larval stage of Galleria mellonella assessed as survival at 16 ug/ml after 96 hrs
Candida albicans [13] = experiment: Antifungal activity against Candida albicans ATCC 90028 assessed as growth inhibition at 0.0625 ug/ml after 48 hrs by broth microdilution method relative to control; assay type: functional; settings: ATCC 90028, 48 h, read-out: GI
Candida albicans [14] = experiment: Antifungal activity against Candida albicans ATCC 90028 assessed as growth inhibition at 1 ug/ml after 48 hrs by broth microdilution method relative to control; assay type: functional; settings: ATCC 90028, 48 h, read-out: GI
Candida albicans [15] = experiment: Antifungal activity against Candida albicans ATCC 90028 assessed as growth inhibition at 8 ug/ml after 48 hrs by broth microdilution method relative to control; assay type: functional; settings: ATCC 90028, 48 h, read-out: GI
Aspergillus niger [16] = experiment: Antifungal activity against Aspergillus niger ATCC 16404 assessed as radial growth inhibition at 64 ug/ml after 5 to 7 days relative to control; assay type: functional; settings: read-out: GI
Candida albicans [17] = experiment: Antifungal activity against Candida albicans ATCC 90028 assessed as growth inhibition at 0.0313 ug/ml after 48 hrs by broth microdilution method relative to control; assay type: functional; settings: ATCC 90028, 48 h, read-out: GI
[18] = Antifungal activity against Colletotrichum coccodes MC1 assessed as radial growth inhibition at 64 ug/ml after 5 to 7 days relative to control; assay type: functional
Candida albicans [19] = experiment: Antifungal activity against Candida albicans ATCC 90028 assessed as growth inhibition at 0.25 ug/ml after 48 hrs by broth microdilution method relative to control; assay type: functional; settings: ATCC 90028, 48 h, read-out: GI
Candida albicans [20] = experiment: Antifungal activity against Candida albicans ATCC 90028 after 18 to 48 hrs in presence of 20 ug/ml fluconazole by checkerboard assay; assay type: functional
Candida albicans [21] = experiment: Antifungal activity against Candida albicans ATCC 90028 after 18 to 48 hrs in presence of 1.25 ug/ml fluconazole by checkerboard assay; assay type: functional
[22] = Antifungal activity against Fusarium oxysporum MF5 assessed as radial growth inhibition at 64 ug/ml after 5 to 7 days relative to control; assay type: functional
Candida albicans [23] = experiment: Antifungal activity against Candida albicans ATCC 90028 assessed as growth inhibition at 16 ug/ml after 48 hrs by broth microdilution method relative to control; assay type: functional; settings: ATCC 90028, 48 h, read-out: GI
Candida albicans [24] = experiment: Antifungal activity against Candida albicans ATCC 90028 assessed as growth inhibition at 0.125 ug/ml after 48 hrs by broth microdilution method relative to control; assay type: functional; settings: ATCC 90028, 48 h, read-out: GI
Candida albicans [25] = experiment: Antifungal activity against Candida albicans ATCC 90028 assessed as growth inhibition at 2 ug/ml after 48 hrs by broth microdilution method relative to control; assay type: functional; settings: ATCC 90028, 48 h, read-out: GI
Candida albicans [26] = experiment: Fungicidal activity against Candida albicans ATCC 90028 at MIC after 48 hrs in presence of osmotic protector 0.8 M sorbitol by broth microdilution method; assay type: functional
Candida albicans [27] = experiment: Antifungal activity against Candida albicans ATCC 90028 assessed as growth inhibition after 48 hrs by broth microdilution method; assay type: functional; settings: ATCC 90028, 48 h
Candida albicans [28] = experiment: Antifungal activity against Candida albicans ATCC 90028 assessed as growth inhibition after 18 to 48 hrs in presence of 1.25 ug/ml fluconazole by checkerboard assay; assay type: functional
Candida albicans [29] = experiment: Antifungal activity against Candida albicans ATCC 90028 after 18 to 48 hrs in presence of 5 ug/ml fluconazole by checkerboard assay; assay type: functional
Candida albicans [30] = experiment: Antifungal activity against Candida albicans ATCC 90028 after 18 to 48 hrs in presence of 40 ug/ml fluconazole by checkerboard assay; assay type: functional
Candida albicans [31] = experiment: Fungicidal activity against Candida albicans ATCC 90028 after 48 hrs by broth microdilution method; assay type: functional; settings: ATCC 90028, 48 h
[32] = Antifungal activity against Fusarium oxysporum MF5 assessed as radial growth inhibition at 32 ug/ml after 5 to 7 days relative to control; assay type: functional
[33] = Antifungal activity against Fusarium sambucinum MF1 assessed as radial growth inhibition at 32 ug/ml after 5 to 7 days relative to control; assay type: functional
Aspergillus niger [34] = experiment: Antifungal activity against Aspergillus niger ATCC 16404 assessed as radial growth inhibition at 32 ug/ml after 5 to 7 days relative to control; assay type: functional; settings: read-out: GI
[35] = Antifungal activity against Colletotrichum coccodes MC1 assessed as radial growth inhibition at 32 ug/ml after 5 to 7 days relative to control; assay type: functional
[36] = Toxicity in last instar larval stage of Galleria mellonella assessed as decrease in survival at 0.33% after 96 hrs

| Compound | inhibition of growth at 4 µg/mL (Candida albicans [3]) | growth inhibition (GI) [4] | inhibition of growth at 0.5 µg/mL (Candida albicans [10]) | inhibition of growth at 0.0625 µg/mL (Candida albicans [13]) | inhibition of growth at 1 µg/mL (Candida albicans [14]) | inhibition of growth at 8 µg/mL (Candida albicans [15]) | inhibition of growth at 64 µg/mL (Aspergillus niger [16]) | inhibition of growth at 0.0313 µg/mL (Candida albicans [17]) | growth inhibition (GI) [18] | inhibition of growth at 0.25 µg/mL (Candida albicans [19]) | growth inhibition (GI) [22] | inhibition of growth at 16 µg/mL (Candida albicans [23]) | inhibition of growth at 0.125 µg/mL (Candida albicans [24]) | inhibition of growth at 2 µg/mL (Candida albicans [25]) | other results |
| --- | --- | --- | --- | --- | --- | --- | --- | --- | --- | --- | --- | --- | --- | --- | --- |
| Clc1ccc(-c2nnn(CCCSc3nc4ccccc4o3)n2)cc1 | 98.7% | 14.5% | 99.4% | 99.1% | 99.3% | 99.4% | 11.8% | 99% | 46.7% | 99.2% | 4% | 99.2% | 99.1% | 99.5% | MIC (Candida albicans [1]): 1 µg/mL; Ratio (Candida albicans [2]): 0.08; fractional inhibitory concentration index (FICI) (Candida albicans [5]): 5.08; Activity (Candida albicans [6]): 99%; Activity (Candida albicans [7]): 100%; MIC (Candida albicans [8]): 1 µg/mL; Activity (Candida albicans [9]): 100%; Activity (Candida albicans [11]): 100%; survival at 96 h [12]: 100%; Activity (Candida albicans [20]): 98%; Activity (Candida albicans [21]): 100%; Activity (Candida albicans [26]): 100%; MIC (Candida albicans [27]): > 16 µg/mL; MIC (Candida albicans [28]): 1.25 µg/mL; Activity (Candida albicans [29]): 99%; Activity (Candida albicans [30]): 100% |
| OC(Cn1cncn1)(Cn1cncn1)c1ccc(F)cc1F [FLUCONAZOLE] |  |  |  |  |  |  |  |  |  |  |  |  |  |  | MFC (Candida albicans [31]): 0.5 µg/mL (≈ 1.63 µM); growth inhibition (GI) [32]: 17.6%; growth inhibition (GI) [33]: 67.7%; MIC (Candida albicans [27]): 0.25 µg/mL (≈ 0.816 µM); inhibition of growth at 32 µg/mL (Aspergillus niger [34]): 52.9%; growth inhibition (GI) [35]: 100% |
| Cc1ccc(-c2nnn(CCCSc3nc4ccccc4s3)n2)cc1 | 98.9% | 0% | 98.7% | 98.8% | 98.9% | 99% | 3% | 98.8% | 33.4% | 98.6% | 0% | 98.8% | 98.8% | 98.6% |  |
| C[S+](C)[O-] [DIMETHYL SULFOXIDE] |  |  |  |  |  |  |  |  |  |  |  |  |  |  | Activity [36]: Non-Toxic |
| c1ccc(-c2nnn(CCCSc3nc4ccccc4s3)n2)cc1 |  | 13% |  |  |  |  | 4.4% |  | 23.4% |  | 0% |  |  |  |  |
| Cc1ccc(-c2nnn(CCCSc3nc4ccccc4o3)n2)cc1 |  | 16% |  |  |  |  | 11.8% |  | 43.4% |  | 0% |  |  |  |  |
| O=S(=O)(CCn1nnc(-c2ccccc2Cl)n1)c1ccccc1 | 97.8% | 35.6% | 98.2% | 98.4% | 98.2% | 98% | 17.1% | 98.6% | 43.4% | 98.1% | 31.2% | 98.5% | 97.8% | 97.9% |  |
